This is an account of results in the Kinase Knowledgebase extract (Sharma et al. 2016).

One experiment concerns the target PIK3CG (human) (UniProt P48736). Put plainly: Assessment of PI3KCG Kinase Activity.
Another experiment has as its target PIK3CD (Human) (UniProt O00329). The experiment in a line: Assessment of PI3KCD Kinase Activity.

PIK3CG (human), sequence (P48736 whole entry, looked up): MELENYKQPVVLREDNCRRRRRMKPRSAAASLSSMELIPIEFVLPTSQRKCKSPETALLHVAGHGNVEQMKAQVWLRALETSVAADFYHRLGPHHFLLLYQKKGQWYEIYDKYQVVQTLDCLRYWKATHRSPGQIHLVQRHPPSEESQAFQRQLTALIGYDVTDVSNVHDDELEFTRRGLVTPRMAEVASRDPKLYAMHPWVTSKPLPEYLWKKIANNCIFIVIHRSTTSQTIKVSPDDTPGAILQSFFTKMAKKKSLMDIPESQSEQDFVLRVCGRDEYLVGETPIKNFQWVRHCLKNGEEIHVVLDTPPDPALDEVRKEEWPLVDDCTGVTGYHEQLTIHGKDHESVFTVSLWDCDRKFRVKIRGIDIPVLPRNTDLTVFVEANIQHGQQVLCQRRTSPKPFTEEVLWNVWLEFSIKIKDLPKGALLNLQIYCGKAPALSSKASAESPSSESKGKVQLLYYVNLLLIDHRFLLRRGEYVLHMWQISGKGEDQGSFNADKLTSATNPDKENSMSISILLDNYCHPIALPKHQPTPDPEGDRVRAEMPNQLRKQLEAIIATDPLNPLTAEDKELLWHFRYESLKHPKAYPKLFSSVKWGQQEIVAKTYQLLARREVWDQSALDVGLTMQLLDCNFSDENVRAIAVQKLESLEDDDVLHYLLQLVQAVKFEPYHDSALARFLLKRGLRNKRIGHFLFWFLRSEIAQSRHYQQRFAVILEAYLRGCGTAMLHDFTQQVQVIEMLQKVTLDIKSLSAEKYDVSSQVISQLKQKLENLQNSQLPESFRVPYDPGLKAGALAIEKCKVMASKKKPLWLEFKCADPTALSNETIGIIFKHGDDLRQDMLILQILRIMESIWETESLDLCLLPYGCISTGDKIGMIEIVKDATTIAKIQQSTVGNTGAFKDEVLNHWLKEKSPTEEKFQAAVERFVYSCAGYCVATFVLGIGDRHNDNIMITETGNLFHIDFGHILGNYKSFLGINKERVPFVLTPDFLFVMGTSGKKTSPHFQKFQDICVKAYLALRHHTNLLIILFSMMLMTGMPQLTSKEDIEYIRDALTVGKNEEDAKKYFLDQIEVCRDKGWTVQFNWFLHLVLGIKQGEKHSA
PIK3CD (Human), sequence (O00329 whole entry, looked up): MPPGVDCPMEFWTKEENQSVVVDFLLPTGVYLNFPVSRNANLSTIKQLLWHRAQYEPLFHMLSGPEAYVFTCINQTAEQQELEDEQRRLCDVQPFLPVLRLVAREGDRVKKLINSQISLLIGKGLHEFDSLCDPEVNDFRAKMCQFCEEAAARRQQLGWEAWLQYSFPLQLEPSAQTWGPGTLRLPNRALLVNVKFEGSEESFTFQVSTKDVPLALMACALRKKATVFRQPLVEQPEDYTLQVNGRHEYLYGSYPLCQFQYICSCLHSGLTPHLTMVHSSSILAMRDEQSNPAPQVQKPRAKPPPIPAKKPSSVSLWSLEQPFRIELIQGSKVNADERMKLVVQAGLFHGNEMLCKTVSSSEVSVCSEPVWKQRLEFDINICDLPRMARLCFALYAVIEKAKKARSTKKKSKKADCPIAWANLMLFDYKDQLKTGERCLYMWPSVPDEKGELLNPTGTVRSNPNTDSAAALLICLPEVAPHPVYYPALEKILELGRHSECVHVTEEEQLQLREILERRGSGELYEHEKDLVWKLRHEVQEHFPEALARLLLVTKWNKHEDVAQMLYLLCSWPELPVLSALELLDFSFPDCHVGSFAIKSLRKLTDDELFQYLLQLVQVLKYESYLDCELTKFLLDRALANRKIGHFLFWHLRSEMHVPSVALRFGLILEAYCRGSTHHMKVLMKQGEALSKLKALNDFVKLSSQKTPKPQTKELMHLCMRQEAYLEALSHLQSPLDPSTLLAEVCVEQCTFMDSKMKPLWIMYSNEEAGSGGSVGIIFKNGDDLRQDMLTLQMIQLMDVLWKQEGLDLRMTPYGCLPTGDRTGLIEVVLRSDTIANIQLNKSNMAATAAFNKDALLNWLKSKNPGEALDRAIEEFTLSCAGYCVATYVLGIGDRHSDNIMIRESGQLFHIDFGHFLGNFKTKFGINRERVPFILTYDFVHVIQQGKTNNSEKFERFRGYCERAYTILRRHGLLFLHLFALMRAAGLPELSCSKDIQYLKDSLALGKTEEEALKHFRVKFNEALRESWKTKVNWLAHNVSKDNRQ

As for `COc1ccc(-c2nn(Cc3cc4cccc(C)c4c(=O)n3-c3ccccc3C)c3ncnc(N)c23)cc1`, the IC50 at PIK3CG (human) is below 0.1 µM.
For `Cc1ccccc1-n1c(Cn2nc(-c3ccc4nc(N)sc4c3)c3c(N)ncnc32)cc2cccc(C)c2c1=O`, the IC50 against PIK3CG (human) and against PIK3CD (Human) was below 0.1 µM each time.
Turning to `Cc1ccccc1-n1c(Cn2nc(C3=CCC4OC(N)=NC4=C3)c3c(N)ncnc32)cc2cccc(C)c2c1=O` (stereo not given), the IC50 at PIK3CG (human) and against PIK3CD (Human) was below 0.1 µM in each case.
`Cc1cccc2cc(Cn3nc(-c4cc(O)cc(F)c4)c4c(N)ncnc43)n(-c3ccccc3O)c(=O)c12`: the IC50 on PIK3CG (human) and on PIK3CD (Human) was below 0.1 µM in each case.
On to `Cc1csc2nc(Cn3nc(I)c4c(N)ncnc43)n(-c3ccccc3C(C)C)c(=O)c12`, for which the IC50 against PIK3CG (human) and against PIK3CD (Human) was below 0.1 µM throughout.
For `Cc1ccccc1-n1c(Cn2nc(-c3ccc4ncnc(N)c4c3)c3c(N)ncnc32)cc2cccc(C)c2c1=O`, the IC50 against PIK3CG (human) and against PIK3CD (Human) was below 0.1 µM each time.
On to `Cc1ccccc1-n1c(Cn2nc(-c3cc(O)cc(F)c3)c3c(N)ncnc32)nc2scc(C)c2c1=O`, for which the IC50 at PIK3CG (human) and against PIK3CD (Human) was below 0.1 µM each time.
Regarding `Cc1cccc2cc(Cn3nc(I)c4c(N)ncnc43)n(C3CC3)c(=O)c12`, the IC50 on PIK3CG (human) and on PIK3CD (Human) was below 0.1 µM in each case.
Consider `CCc1ccccc1-n1c(Cn2nc(-c3cn[nH]c3)c3c(N)ncnc32)cc2cccc(C)c2c1=O`, for which the IC50 on PIK3CG (human) and against PIK3CD (Human) was below 0.1 µM throughout.
Consider `Cc1ccccc1-n1c(Cn2nc(-c3cn[nH]c3)c3c(N)ncnc32)cc2cccc(C)c2c1=O`, for which the IC50 against PIK3CG (human) and on PIK3CD (Human) was below 0.1 µM each time.
Turning to `Cc1ccccc1-n1c(Cn2nc(-c3ccc(O)c(Cl)c3)c3c(N)ncnc32)cc2cccc(C)c2c1=O`, the IC50 on PIK3CG (human) and against PIK3CD (Human) was below 0.1 µM each time.
With `Cc1csc2nc(Cn3nc(-c4cc(O)cc(F)c4)c4c(N)ncnc43)n(-c3ccccc3F)c(=O)c12`, the IC50 against PIK3CG (human) and at PIK3CD (Human) was below 0.1 µM in each case.
For the compound `Cc1ccccc1-n1c(Cn2nc(-c3cnc4[nH]ccc4c3)c3c(N)ncnc32)cc2cccc(C)c2c1=O`, the IC50 at PIK3CG (human) and against PIK3CD (Human) was below 0.1 µM throughout.
`Cc1cccc2cc(Cn3nc(I)c4c(N)ncnc43)n(C3CCCCC3)c(=O)c12` yielded an IC50 against PIK3CG (human) below 0.1 µM.
`CC(=O)Nc1nc2ccc(-c3nn(Cc4cc5cccc(C)c5c(=O)n4-c4ccccc4)c4ncnc(N)c34)cc2s1`: the IC50 on PIK3CG (human) and against PIK3CD (Human) was below 0.1 µM in each case.
With `Cc1ccccc1-n1c(Cn2nc(-c3ccc(Cl)c(O)c3)c3c(N)ncnc32)cc2cccc(C)c2c1=O`, the IC50 on PIK3CG (human) and against PIK3CD (Human) was below 0.1 µM each time.
Turning to `Cc1ccccc1-n1c(Cn2nc(C=CC(N)=O)c3c(N)ncnc32)cc2cccc(C)c2c1=O`, the half-maximal inhibitory concentration (IC50) on PIK3CG (human) and against PIK3CD (Human) was below 0.1 µM in each case.
Consider `Cc1cccc2cc(Cn3nc(-c4cn[nH]c4)c4c(N)ncnc43)n(-c3ccccc3C(C)C)c(=O)c12`, for which the concentration for half-maximal inhibition (IC50) against PIK3CG (human) and against PIK3CD (Human) was below 0.1 µM throughout.
For the compound `Cc1ccccc1-n1c(Cn2nc(-c3ccc4cc[nH]c4c3)c3c(N)ncnc32)cc2cccc(C)c2c1=O`, the IC50 against PIK3CG (human) and on PIK3CD (Human) was below 0.1 µM in each case.
Consider `Cc1ccccc1-n1c(Cn2nc(-c3ccc(F)c(O)c3)c3c(N)ncnc32)cc2ccccc2c1=O`, for which the IC50 against PIK3CG (human) and against PIK3CD (Human) was below 0.1 µM in each case.
In the case of `Cc1csc2nc(Cn3nc(-c4ccc(O)c(F)c4)c4c(N)ncnc43)n(-c3ccccc3F)c(=O)c12`, at PIK3CG (human), the IC50 was below 0.1 µM.
For the compound `CCc1ccccc1-n1c(Cn2nc(-c3cccc(O)c3)c3c(N)ncnc32)cc2cccc(C)c2c1=O`, the IC50 at PIK3CG (human) and on PIK3CD (Human) was below 0.1 µM throughout.
In the case of `Cc1cccc2cc(Cn3nc(-c4cc(O)cc(F)c4)c4c(N)ncnc43)n(-c3ccccc3F)c(=O)c12`, the IC50 on PIK3CG (human) and against PIK3CD (Human) was below 0.1 µM each time.
As to `Cc1cccc2cc(Cn3nc(-c4cc(O)cc(F)c4)c4c(N)ncnc43)n(-c3ccccc3C(C)C)c(=O)c12`, the IC50 at PIK3CG (human) and against PIK3CD (Human) was below 0.1 µM each time.
In the case of `Cc1ccccc1-n1c(Cn2nc(-c3ccc(F)c(O)c3)c3c(N)ncnc32)cc2cccc(C)c2c1=O`, the IC50 on PIK3CG (human) and on PIK3CD (Human) was below 0.1 µM each time.
Compound `CC(=O)Nc1nc2ccc(-c3nn(Cc4cc5cccc(C)c5c(=O)n4-c4ccccc4C)c4ncnc(N)c34)cc2s1` registered an IC50 against PIK3CG (human) below 0.1 µM.
Consider `Cc1cccc2cc(C(C)Nc3ncnc4[nH]cnc34)n(-c3ccccc3F)c(=O)c12` (stereo not given), for which the IC50 against PIK3CG (human) and on PIK3CD (Human) was below 0.1 µM throughout.
With `Cc1cccc2cc(Cn3nc(-c4cccc(O)c4)c4c(N)ncnc43)n(-c3ccccc3C(C)C)c(=O)c12`, the IC50 at PIK3CG (human) and against PIK3CD (Human) was below 0.1 µM each time.
Consider `Cc1ccccc1-n1c(Cn2nc(-c3ccc(O)cc3)c3c(N)ncnc32)cc2cccc(C)c2c1=O`, for which the IC50 at PIK3CG (human) is below 0.1 µM.
At PIK3CG (human), `Cc1cccc2cc(Cn3nc(-c4ccc(O)c(F)c4)c4c(N)ncnc43)n(-c3ccccc3F)c(=O)c12` yielded an IC50 below 0.1 µM.
For `Cc1ccccc1-n1c(Cn2nc(I)c3c(N)ncnc32)cc2ccccc2c1=O`, the IC50 against PIK3CG (human) was below 0.1 µM.
In the case of `Cc1cccc2cc(Cn3nc(-c4ccc(O)c(Cl)c4)c4c(N)ncnc43)n(-c3ccccc3F)c(=O)c12`, the IC50 against PIK3CG (human) was below 0.1 µM.
Take `Cc1cccc2cc(Cn3nc(I)c4c(N)ncnc43)n(-c3ccccc3F)c(=O)c12`: the IC50 against PIK3CD (Human) is below 0.1 µM.
Regarding `Cc1ccccc1-n1c(Cn2nc(-c3cc(O)cc(F)c3)c3c(N)ncnc32)nc2c(C)nn(C)c2c1=O`, the IC50 against PIK3CD (Human) is below 0.1 µM.
`Cc1cccnc1-n1c(Cn2nc(-c3cccc(O)c3)c3c(N)ncnc32)nc2scc(C)c2c1=O`: the IC50 on PIK3CD (Human) is below 0.1 µM.
On the same count and under the same terms, the same measure for `Cc1cccc2cc(Cn3nc(I)c4c(N)ncnc43)n(-c3ccccc3Cl)c(=O)c12`: below 0.1 µM.
`COc1cc(-c2nn(Cc3cc4cccc(C)c4c(=O)n3-c3ccccc3C)c3ncnc(N)c23)ccc1Cl` displayed an IC50 at PIK3CG (human) below 0.1 µM.
The compound `Cc1cccc2cc(Cn3nc(-c4cccc(O)c4)c4c(N)ncnc43)n(-c3ccccc3OCCN3CCOCC3)c(=O)c12` returned an IC50 on PIK3CD (Human) below 0.1 µM.
As to `Cc1ccccc1-n1c(Cn2nc(C#N)c3c(N)ncnc32)cc2cccc(C)c2c1=O`, the IC50 on PIK3CD (Human) was below 0.1 µM.
Same read-out and setting: the same measure for `Cc1ccccc1-n1c(Cn2nc(C#C[C@@H](C)O)c3c(N)ncnc32)nc2scc(C)c2c1=O`: below 0.1 µM; for `Cc1ccccc1-n1c(Cn2nc(-c3cc(O)cc(F)c3)c3c(N)ncnc32)nc2snc(C)c2c1=O`: below 0.1 µM.
Turning to `Cc1ccccc1-n1c(Cn2nc(Cl)c3c(N)ncnc32)nc2scc(C)c2c1=O`, at PIK3CD (Human), the IC50 is below 0.1 µM.
The compound `Cc1ccccc1-n1c(Cn2nc(-c3ccc(O)c(F)c3)c3c(N)ncnc32)cc2nccc(C)c2c1=O` gave an IC50 against PIK3CD (Human) below 0.1 µM.
As for `Cc1cccc2cc(Cn3nc(C#C[C@@H](C)O)c4c(N)ncnc43)n(-c3ccccc3F)c(=O)c12`, the IC50 on PIK3CD (Human) is below 0.1 µM.
`Cc1csc2nc(Cn3nc(-c4cccc(O)c4)c4c(N)ncnc43)n(-c3ccccc3F)c(=O)c12` gave an IC50 against PIK3CD (Human) below 0.1 µM.
On to `Cc1ccccc1-n1c(Cn2nc(C#C[C@H](C)O)c3c(N)ncnc32)nc2scc(C)c2c1=O`, for which the IC50 against PIK3CD (Human) is below 0.1 µM.
As for `Cc1ccccc1-n1c(Cn2nc(C#C[C@@H](C)O)c3c(N)ncnc32)cc2cccc(C)c2c1=O`, the IC50 against PIK3CD (Human) was below 0.1 µM.
`Cc1ccccc1-n1c(Cn2nc(Cl)c3c(N)ncnc32)cc2cccc(C)c2c1=O` had an IC50 against PIK3CD (Human) below 0.1 µM.
Compound `CC(C)n1c(Cn2nc(-c3cc(O)cc(F)c3)c3c(N)ncnc32)cc2cccc(F)c2c1=O` returned an IC50 against PIK3CD (Human) below 0.1 µM.
Regarding `COc1ccccc1-n1c(Cn2nc(Br)c3c(N)ncnc32)nc2scc(C)c2c1=O`, the IC50 on PIK3CD (Human) was below 0.1 µM.
Same read-out and setting: the same measure for `Cc1cccc2cc(Cn3nc(-c4cc(O)cc(F)c4)c4c(N)ncnc43)n(C3CCOCC3)c(=O)c12`: below 0.1 µM.
At PIK3CD (Human), `Cc1cccc2cc(Cn3nc(I)c4c(N)ncnc43)n(-c3ccccc3OCCN3CCOCC3)c(=O)c12` registered an IC50 below 0.1 µM.
The same measure, in the same setting: the same measure for `Cc1cccc2cc(Cn3nc(-c4cccc(O)c4)c4c(N)ncnc43)n(C)c(=O)c12`: below 0.1 µM.
In the case of `Cc1cccc2cc(Cn3nc(C#C[C@@H](C)O)c4c(N)ncnc43)n(C(C)C)c(=O)c12`, at PIK3CD (Human), the IC50 was below 0.1 µM.
In the case of `Cc1ccccc1-n1c(Cn2nc(C#CCO)c3c(N)ncnc32)nc2scc(C)c2c1=O`, at PIK3CD (Human), the IC50 was below 0.1 µM.
At PIK3CD (Human), `Cc1csc2nc(Cn3nc(C#CCO)c4c(N)ncnc43)n(-c3ccccc3F)c(=O)c12` had an IC50 below 0.1 µM.
For the compound `Cc1cccnc1-n1c(Cn2nc(-c3cc(O)cc(F)c3)c3c(N)ncnc32)cc2ccccc2c1=O`, the IC50 at PIK3CD (Human) was below 0.1 µM.
`Cc1cccc2cc(Cn3nc(-c4cccc(O)c4)c4c(N)ncnc43)n(C3CCC3)c(=O)c12` registered an IC50 against PIK3CD (Human) below 0.1 µM.
In turn, `Cc1ccccc1-n1c(Cn2nc(-c3ccn[nH]3)c3c(N)ncnc32)cc2cccc(C)c2c1=O` registered an IC50 against PIK3CG (human) below 0.1 µM.
`Cc1csc2nc(Cn3nc(I)c4c(N)ncnc43)n(-c3ccccc3F)c(=O)c12` had an IC50 at PIK3CD (Human) below 0.1 µM.
In the case of `Cc1ccccc1-n1c(Cn2nc(-c3cc(O)cc(F)c3)c3c(N)ncnc32)nc2sc(C)c(C)c2c1=O`, at PIK3CD (Human), the IC50 was below 0.1 µM.
In turn, `Cc1cccc2cc(Cn3nc(-c4cn[nH]c4)c4c(N)ncnc43)n(-c3ccccc3F)c(=O)c12` registered an IC50 on PIK3CD (Human) below 0.1 µM.
Still for that read-out and setting: the value for `Cc1csc2nc(Cn3nc(-c4ccc(F)c(O)c4)c4c(N)ncnc43)n(-c3ccccc3F)c(=O)c12` was below 0.1 µM.
The compound `Cc1cccc2cc(Cn3nc(-c4cc(O)cc(F)c4)c4c(N)ncnc43)n(C3CCC3)c(=O)c12` showed an IC50 against PIK3CD (Human) below 0.1 µM.
For the compound `Cc1ccncc1-n1c(Cn2nc(I)c3c(N)ncnc32)cc2cccc(C)c2c1=O`, on PIK3CD (Human), the IC50 was below 0.1 µM.
Compound `COc1ccc(-c2nn(Cc3cc4cccc(C)c4c(=O)n3-c3ccccc3C)c3ncnc(N)c23)cc1OC` yielded an IC50 at PIK3CG (human) below 0.1 µM.
Regarding `Nc1ncnc2c1c(-c1cc(O)cc(F)c1)nn2Cc1cc2cccc(F)c2c(=O)n1-c1ccccc1F`, the half-inhibitory concentration (IC50) against PIK3CD (Human) was below 0.1 µM.
At PIK3CD (Human), `Cc1cccc2cc(Cn3nc(C#C[C@@H](C)O)c4c(N)ncnc43)n(-c3ccccc3Cl)c(=O)c12` showed an IC50 below 0.1 µM.
Take `COc1ccccc1-n1c(Cn2nc(-c3cccc(O)c3)c3c(N)ncnc32)nc2scc(C)c2c1=O`: the IC50 against PIK3CD (Human) was below 0.1 µM.
On the same count and under the same terms, the same measure for `COc1ccccc1-n1c(Cn2nc(I)c3c(N)ncnc32)cc2cccc(C)c2c1=O`: below 0.1 µM; for `Cc1cccc2cc(Cn3nc(-c4ccc(F)c(O)c4)c4c(N)ncnc43)n(-c3ccccc3F)c(=O)c12`: below 0.1 µM.

The term IC50 denotes the concentration that gives 50% inhibition. A lower IC50 goes with greater potency.
